Measured values from US11622991B2, “Protocol for treatment of lupus nephritis” (Aurinia Pharmaceuticals Inc., priority 2017, dated 2023).

How the values were obtained:
lupus nephritis [1] = assay: Pharmacodynamic dosing (eGFR-based dose reduction): CR/PR in patients with and without dose reduction; assay type: in vivo, human
Procedure: To determine the efficacy of the pharmacodynamic protocol wherein dosage is reduced or stopped according to the presence or absence of indicators of the decrease in eGFR experienced as a side effect, these three groups of patients were assessed after 24 weeks and 48 weeks of treatment with respect to whether treatment was altered according to the invention protocol.
In this study, CR was defined as a composite of UPCR ≤0.5 mg/mg; eGFR >60 mL/min/1.73 m^2 or within 20% of baseline, steroids at ≤10 mg/day and no administration of rescue medication. PR is defined as UPCR reduction of 50% from baseline and no use of rescue medication.

lupus nephritis [2] = assay: Predictability from early reduction in UPCR or C3/C4 normalization combined at 12 weeks (Tables 13-17); assay type: in vivo, human; details: number of patients
Excerpt: PR is defined as at least 50% reduction in proteinuria (i.e. UPCR).
Sensitivity is defined as the probability that a subject showing PR at 48 weeks would have shown a favorable result with regard to the marker at the designated early time point. In the tables below, this is the ratio of the number of subjects with favorable marker results (early drop or normalization) to the total subjects with 48 week PR.
Specificity is defined as the probability that a subject not showing PR at 48 weeks would have shown an unfavorable result with regard to the marker at the designated early time point. In the tables below, this is the ratio of the number of subjects with unfavorable marker results (no early drop or no normalization) to the total subjects with no 48 week PR.
Positive predictive value is defined as the probability that a subject showing a favorable result with respect to the marker at an earlier time point would show PR at 48 weeks. In the tables below, this is the ratio of the number of subjects with favorable marker results who have 48 week PR to those with favorable marker results (early reduction or yes column).
Negative predictive value is defined as the probability that a subject showing an unfavorable result with respect to the marker at an earlier time point would not show PR at 48 weeks. In the tables below, this is the ratio of the number of subjects with unfavorable marker results who have no PR at 48 weeks to the total subjects with unfavorable marker results (no early reduction or no column). […]

[3] = 24 weeks, High Dose (39.5 mg BID)
[4] = 24 weeks, Low Dose (23.7 mg BID)
[5] = 48 weeks, High Dose (39.5 mg BID)
[6] = 48 weeks, Low Dose (23.7 mg BID)
[7] = patients with dose reductions (pharmacodynamically dosed), High Dose (39.5 mg BID)
[8] = patients with dose reductions (pharmacodynamically dosed), Low Dose (23.7 mg BID)
[9] = patients with no dose reductions, High Dose (39.5 mg BID)
[10] = patients with no dose reductions, Low Dose (23.7 mg BID)
[11] = Early 25% reduction in UPCR or C3/C4 normalization, Week 12, 23.7 mg BID
[12] = Early 25% reduction in UPCR or C3/C4 normalization, Week 12, 39.5 mg BID
[13] = Early 25% reduction in UPCR or C3/C4 normalization, Week 24, 23.7 mg BID
[14] = Early 25% reduction in UPCR or C3/C4 normalization, Week 48, 23.7 mg BID
[15] = Early 30% reduction in UPCR or C3/C4 normalization, Week 12, 23.7 mg BID
[16] = Early 30% reduction in UPCR or C3/C4 normalization, Week 12, 39.5 mg BID
[17] = Early 30% reduction in UPCR or C3/C4 normalization, Week 24, 23.7 mg BID
[18] = Early 30% reduction in UPCR or C3/C4 normalization, Week 48, 23.7 mg BID
[19] = Early 30% reduction in UPCR or C3/C4 normalization, Week 48, 39.5 mg BID
[20] = Early 35% reduction in UPCR or C3/C4 normalization, Week 12, 23.7 mg BID

SMILES: C=C/C=C/C[C@@H](C)[C@@H](O)[C@H]1C(=O)N[C@@H](CC)C(=O)N(C)CC(=O)N(C)[C@@H](CC(C)C)C(=O)N[C@@H](C(C)C)C(=O)N(C)[C@@H](CC(C)C)C(=O)N[C@@H](C)C(=O)N[C@H](C)C(=O)N(C)[C@@H](CC(C)C)C(=O)N(C)[C@@H](CC(C)C)C(=O)N(C)[C@@H](C(C)C)C(=O)N1C [voclosporin]
- Patients with Dose Reduction (lupus nephritis [1]; [3]): 47 (53.4) n(%)
- Patients with no Dose Reduction (lupus nephritis [1]; [3]): 41 (46.6) n(%)
- Patients with Dose Reduction (lupus nephritis [1]; [4]): 39 (43.8) n(%)
- Patients with no Dose Reduction (lupus nephritis [1]; [4]): 50 (56.2) n(%)
- Patients with Dose Reduction (lupus nephritis [1]; [5]): 53 (60.2) n(%)
- Patients with no Dose Reduction (lupus nephritis [1]; [5]): 35 (39.8) n(%)
- Patients with Dose Reduction (lupus nephritis [1]; [6]): 46 (51.7) n(%)
- Patients with no Dose Reduction (lupus nephritis [1]; [6]): 43 (48.3) n(%)
- Patients with CR at 24 weeks (lupus nephritis [1]; [7]): 13 (27.7) n(%)
- Patients with CR at 48 weeks (lupus nephritis [1]; [7]): 24 (45.3) n(%)
- Patients with PR at 24 weeks (lupus nephritis [1]; [7]): 34 (72.3) n(%)
- Patients with PR at 48 weeks (lupus nephritis [1]; [7]): 41 (77.4) n(%)
- Patients with CR at 24 weeks (lupus nephritis [1]; [8]): 14 (35.9) n(%)
- Patients with CR at 48 weeks (lupus nephritis [1]; [8]): 24 (52.2) n(%)
- Patients with PR at 24 weeks (lupus nephritis [1]; [8]): 28 (71.8) n(%)
- Patients with PR at 48 weeks (lupus nephritis [1]; [8]): 35 (76.1) n(%)
- Patients with CR at 24 weeks (lupus nephritis [1]; [9]): 11 (26.8) n(%)
- Patients with CR at 48 weeks (lupus nephritis [1]; [9]): 11 (31.4) n(%)
- Patients with PR at 24 weeks (lupus nephritis [1]; [9]): 24 (58.5) n(%)
- Patients with PR at 48 weeks (lupus nephritis [1]; [9]): 22 (62.9) n(%)
- Patients with CR at 24 weeks (lupus nephritis [1]; [10]): 15 (30.0) n(%)
- Patients with CR at 48 weeks (lupus nephritis [1]; [10]): 20 (46.5) n(%)
- Patients with PR at 24 weeks (lupus nephritis [1]; [10]): 34 (68.0) n(%)
- Patients with PR at 48 weeks (lupus nephritis [1]; [10]): 26 (60.5) n(%)
- No Week 48 Partial Remission, No Early Drop or Normal (lupus nephritis [2]; [11]): 3
- Week 48 Partial Remission, No Early Drop or Normal (lupus nephritis [2]; [11]): 2
- No Week 48 Partial Remission, No Early Drop or Normal (lupus nephritis [2]; [12]): 3
- Week 48 Partial Remission, No Early Drop or Normal (lupus nephritis [2]; [12]): 3
- Early Drop or Normal No (lupus nephritis [2]; [13]): 1
- No Week 48 Partial Remission, No Early Drop or Normal (lupus nephritis [2]; [13]): 1
- Early Drop or Normal No (lupus nephritis [2]; Early 25% reduction in UPCR or C3/C4 normalization, Week 24, 39.5 mg BID): 10
- Early Drop or Normal No (lupus nephritis [2]; [14]): 1
- No Week 48 Partial Remission, Early Drop or Normal (lupus nephritis [2]; [14]): 10
- No Week 48 Partial Remission, No Early Drop or Normal (lupus nephritis [2]; [14]): 1
- No Week 48 Partial Remission, Early Drop or Normal (lupus nephritis [2]; Early 25% reduction in UPCR or C3/C4 normalization, Week 48, 39.5 mg BID): 10
- No Week 48 Partial Remission, No Early Drop or Normal (lupus nephritis [2]; [15]): 3
- Week 48 Partial Remission, No Early Drop or Normal (lupus nephritis [2]; [15]): 2
- Early Drop or Normal No (lupus nephritis [2]; [16]): 7
- No Week 48 Partial Remission, No Early Drop or Normal (lupus nephritis [2]; [16]): 3
- Week 48 Partial Remission, No Early Drop or Normal (lupus nephritis [2]; [16]): 4
- Early Drop or Normal No (lupus nephritis [2]; [17]): 1
- No Week 48 Partial Remission, No Early Drop or Normal (lupus nephritis [2]; [17]): 1
- Early Drop or Normal No (lupus nephritis [2]; Early 30% reduction in UPCR or C3/C4 normalization, Week 24, 39.5 mg BID): 10
- Early Drop or Normal No (lupus nephritis [2]; [18]): 2
- No Week 48 Partial Remission, Early Drop or Normal (lupus nephritis [2]; [18]): 9
- No Week 48 Partial Remission, No Early Drop or Normal (lupus nephritis [2]; [18]): 2
- Early Drop or Normal No (lupus nephritis [2]; [19]): 8
- No Week 48 Partial Remission, Early Drop or Normal (lupus nephritis [2]; [19]): 8
- No Week 48 Partial Remission, No Early Drop or Normal (lupus nephritis [2]; [19]): 8
- Early Drop or Normal No (lupus nephritis [2]; [20]): 9
- Week 48 Partial Remission, No Early Drop or Normal (lupus nephritis [2]; [20]): 4
- Early Drop or Normal No (lupus nephritis [2]; Early 35% reduction in UPCR or C3/C4 normalization, Week 12, 39.5 mg BID): 9
